Test results from patent publication US7412279B2, “Systems and methods for targeted magnetic resonance imaging of the vascular system” (Epix Pharmaceuticals, Inc., priority 2001, dated 2008).

Assays:
thrombus [1] = test: In vivo MRI of a jugular vein thrombus in the guinea pig, extracellular vascular agent followed by targeted agent; parameters: species or system guinea pig (Hartley male); conditions: vascular MR image
Procedure: A 600 g guinea pig (Hartley male) was anaesthetized with a cocktail of Ketamine (50 mg/kg), Aceapromazine (2.5 mg/kg), and Rompon (5 mg/kg), and anesthesia maintained with sodium pentobarbital (approx.35 mg/kg as needed). An incision was made in the throat and one of the jugular veins was isolated. A 1 cm section of the jugular vein was isolated with vascular clamps. Freshly drawn blood from the animal (50 μL) was mixed with human thrombin (50 uL, 4 units) and injected into the clamped segment of the vein. Four minutes after injection, the clamps were removed and the thrombus was allowed to age for 30 minutes.
The animal was placed inside a General Electric Signa LxCVi 1.5 tesla scanner and imaged using a 3D RF spoiled gradient echo sequence (SPGR) with the following parameters TR=22 ms, TE=3.1 ms, flip angle=40 degree, field of view=8 cm, acquisition bandwith=31.25 kHz. After one scan, an extracellular vascular MRI contrast agent, GdDTPA (Magnevist®), 100 μmol/kg, was injected via a catheter in the carotid artery. The image sequence was repeated 5 times over the next 30 minutes to acquire the vascular MRI data set. […]

thrombus [2] = test: In vivo protocol: vascular agent followed by targeted agent, guinea pig jugular vein thrombus; parameters: species or system guinea pig (Hartley male); conditions: Example 1, 100 μmol/kg
Procedure: One procedure for in vivo imaging of a stationary target within the vascular system (e.g., a thrombus) with a vascular agent (e.g., an extracellular contrast agent or a blood pool agent), and a targeted contrast agent is as follows: A 600 g guinea pig (Hartley male) is anaesthetized. An incision is made in the throat and one of the jugular veins is isolated. A 1 cm section of the jugular vein is isolated with vascular clamps. Freshly drawn blood from the animal (50 μL) is mixed with human thrombin (50 μL, 4 units) and injected into the clamped segment of the vein. Four minutes after injection, the clamps are removed and the thrombus is allowed to age for 30 minutes. GdDTPA (Magnevist®), 100 μmol/kg, an extracellular contrast agent, is injected and the throat area of the guinea pig is imaged using the following pulse sequence on a GE Medical Systems 1.5T MRI: Tl-weighted SPGR, TE=3.1, TR=22, flip angle=40°. […] After 30 minutes, GdDTPA has cleared from the blood and a stationary target (thrombus) targeted MRI agent is injected at a dose of 6 μmol/kg. […]

thrombus [3] = test: In vivo MRI of thrombi in the rabbit carotid artery (crush injury) and jugular vein; parameters: species or system New Zealand White rabbit
Procedure: A 2.5 kg female New Zealand White rabbit was anesthetized with a cocktail of Ketamine (50 mg/kg), Aceapromazine (2.5 mg/kg), and Rompon (5 mg/kg), and anesthesia maintained with sodium pentobarbital (approx.35 mg/kg as needed). An i.v. catheter (24 g) was placed into the ear vein and the ear artery. The jugular vein and carotid artery were isolated. A stenosis was created in the carotid artery by placing an 18 g needle on top of the vessel and then suturing it into place with 3-0 suture. The needle was then removed. A 5 mm portion of the artery was then segmented off distally to the stenosis with microvascular clips. The artery was crushed twice along the 5 mm section. The proximal vascular clip was released to allow blood flow into the section for circa 3 sec. The clip was reapplied and the artery was crushed twice again along the 5 mm section. After 4 minutes, the clips were removed. A 5 mm segment of the jugular vein was isolated with microvascular clips. A thrombus was created by injecting 100 μL of a 3.7 units thrombin, 0.06 M CaCl2, rabbit whole blood mixture. After 4 minutes, the clips were removed.
The thrombi were allowed to age for 50 minutes. A 1.0 mL solution of a 5 mM targeted contrast agent (Structure III, 2 μmol/kg) was administered via the ear vein. […]

Molecule | enhancement of the vascular system (thrombus [1]; Example 10, 100 μmol/kg via carotid artery catheter) [fold] | enhancement of the thrombus (thrombus [1]; Example 10, 100 μmol/kg) | enhancement of the thrombus (thrombus [2]) | enhancement of the vasculature (thrombus [2]; immediately after injection) | visibility of blood vessels (carotid arteries, jugular veins) in MIP (thrombus [3]; Example 6, 80 μmol Gd/kg, image acquired immediately after injection) | signal intensity of both the blood and thrombus (thrombus [3]; Example 9, 80 μmol Gd/kg, injected 80 minutes after the targeted agent)
O=C([O-])CN(CCN(CC(=O)[O-])CC(=O)O)CCN(CC(=O)[O-])CC(=O)O.[Gd+3] [GdDTPA] | 4 | no observable enhancement | no enhancement | some enhancement | – | –
Gd-DTPA-BSA | – | – | – | – | readily visible | increased dramatically
